Laboratory results from patent publication US12595266B2, “Pesticidally active heterocyclic derivatives with sulfur containing substituents” (SYNGENTA CROP PROTECTION AG, priority 2020, dated 2026).

Legend:
Format in all cases: in vivo
[1] = tested on: Chilo suppressalis (Striped Rice Stemborer); assay: Activity against Chilo suppressalis (striped rice stemborer); conditions: 144 h, application rate of 200 ppm, artificial diet, L2 larvae, 6 days after infestation, read-out: control (at least one of mortality, anti-feedant effect, growth inhibition)
Procedure: Example B2: Activity Against Chilo suppressalis (Striped Rice Stemborer)
24-well microtiter plates with artificial diet were treated with aqueous test solutions prepared from 10′000 ppm DMSO stock solutions by pipetting. After drying, the plates were infested with L2 larvae (6-8 per well). The samples were assessed for mortality, anti-feeding effect, and growth inhibition in comparison to untreated samples 6 days after infestation. Control of Chilo suppressalis by a test sample is given when at least one of the categories mortality, anti-feedant effect, and growth inhibition is higher than the untreated sample.

[2] = tested on: Diabrotica balteata (Corn Root Worm); assay: Activity against Diabrotica balteata (corn root worm); conditions: 96 h, application rate of 200 ppm, maize sprouts sprayed, L2 larvae, 4 days after infestation, read-out: effect in at least one of the two categories (mortality or growth inhibition)
Procedure: Example B3: Activity Against Diabrotica balteata (Corn Root Worm)
Maize sprouts placed onto an agar layer in 24-well microtiter plates were treated with aqueous test solutions prepared from 10′000 ppm DMSO stock solutions by spraying. After drying, the plates were infested with L2 larvae (6 to 10 per well). The samples were assessed for mortality and growth inhibition in comparison to untreated samples 4 days after infestation.

[3] = tested on: Euschistus heros (Neotropical Brown Stink Bug); assay: Activity against Euschistus heros (neotropical brown stink bug); conditions: 120 h, application rate of 200 ppm, soybean leaves sprayed, N2 nymphs, 5 days after infestation, read-out: effect in at least one of the two categories (mortality or growth inhibition)
Procedure: Example B4: Activity Against Euschistus heros (Neotropical Brown Stink Bug)
Soybean leaves on agar in 24-well microtiter plates were sprayed with aqueous test solutions prepared from 10′000 ppm DMSO stock solutions. After drying the leaves were infested with N2 nymphs. The samples were assessed for mortality and growth inhibition in comparison to untreated samples 5 days after infestation.

[4] = tested on: Myzus persicae (Green Peach Aphid); assay: Activity against Myzus persicae (green peach aphid), feeding/contact activity; conditions: foliar, 144 h, application rate of 200 ppm, sunflower leaf discs sprayed, aphid population of mixed ages, 6 days after infestation
Procedure: Example B6: Activity Against Myzus persicae (Green Peach Aphid) Feeding/Contact Activity
Sunflower leaf discs were placed onto agar in a 24-well microtiter plate and sprayed with aqueous test solutions prepared from 10′000 ppm DMSO stock solutions. After drying, the leaf discs were infested with an aphid population of mixed ages. The samples were assessed for mortality 6 days after infestation.

[5] = tested on: Plutella xylostella (Diamond Back Moth); assay: Activity against Plutella xylostella (diamond back moth); conditions: 192 h, application rate of 200 ppm, artificial diet, Plutella eggs, 8 days after infestation, read-out: effect in at least one of the two categories (mortality or growth inhibition)
Procedure: Example B7: Activity Against Plutella xylostella (Diamond Back Moth)
24-well microtiter plates with artificial diet were treated with aqueous test solutions prepared from 10′000 ppm DMSO stock solutions by pipetting. After drying, Plutella eggs were pipetted through a plastic stencil onto a gel blotting paper and the plate was closed with it. The samples were assessed for mortality and growth inhibition in comparison to untreated samples 8 days after infestation.

[6] = tested on: Myzus persicae (Green Peach Aphid); assay: Activity against Myzus persicae (green peach aphid), systemic activity; conditions: 144 h, test rate of 24 ppm, roots of infested pea seedlings in test solution (systemic), 6 days
Procedure: Example B9: Activity Against Myzus persicae (Green Peach Aphid) Systemic Activity
Roots of pea seedlings infested with an aphid population of mixed ages were placed directly into aqueous test solutions prepared from 10′000 DMSO stock solutions. The samples were assessed for mortality 6 days after placing seedlings into test solutions.

[7] = tested on: Spodoptera littoralis (Egyptian Cotton Leaf Worm); assay: Activity against Spodoptera littoralis (Egyptian cotton leaf worm); conditions: foliar, 72 h, application rate of 200 ppm, cotton leaf discs sprayed, L1 larvae, 3 days after infestation, read-out: control (at least one of mortality, anti-feedant effect, growth inhibition)
Procedure: Example B8: Activity Against Spodoptera littoralis (Egyptian Cotton Leaf Worm)
Cotton leaf discs were placed onto agar in 24-well microtiter plates and sprayed with aqueous test solutions prepared from 10′000 ppm DMSO stock solutions. After drying the leaf discs were infested with five L1 larvae. The samples were assessed for mortality, anti-feeding effect, and growth inhibition in comparison to untreated samples 3 days after infestation. Control of Spodoptera littoralis by a test sample is given when at least one of the categories mortality, anti-feedant effect, and growth inhibition is higher than the untreated sample.

CCS(=O)(=O)c1c(N2Cc3cc4c(cc3C2=O)OC(F)(F)O4)nc(-c2cnn(CC(F)F)c2)n1C [Compound P4, 6-[2-[1-(2,2-difluoroethyl)pyrazol-4-yl]-5-ethylsulfonyl-1-methyl-imidazol-4-yl]-2,2-difluoro-5H-[1,3]dioxolo[4,5-f]isoindol-7-one]
≥ 80%: percent control (mortality, anti-feedant effect or growth inhibition) at 200 ppm [1] | percent effect (mortality or growth inhibition) at 200 ppm [2] | percent effect (mortality or growth inhibition) at 200 ppm [3] | mortality at 200 ppm [4] | percent effect (mortality or growth inhibition) at 200 ppm [5] | mortality at 24 ppm [6]

CCS(=O)(=O)c1c(N2Cc3cc4c(cc3C2=O)OC(F)(F)O4)nc(-c2cnn(CC3(C#N)CC3)c2)n1C [Compound P5, 1-[[4-[4-(2,2-difluoro-7-oxo-5H-[1,3]dioxolo[4,5-f]isoindol-6-yl)-5-ethylsulfonyl-1-methyl-imidazol-2-yl]pyrazol-1-yl]methyl]cyclopropanecarbonitrile]
≥ 80%: mortality at 200 ppm [4] | percent effect (mortality or growth inhibition) at 200 ppm [5] | mortality at 24 ppm [6]

CCS(=O)(=O)c1c(N2Cc3cc4c(cc3C2=O)OC(F)(F)O4)nc(OCC(F)(F)F)n1C [Compound P6, 6-[5-ethylsulfonyl-1-methyl-2-(2,2,2-trifluoroethoxy)imidazol-4-yl]-2,2-difluoro-5H-[1,3]dioxolo[4,5-f]isoindol-7-one]
≥ 80%: percent control (mortality, anti-feedant effect or growth inhibition) at 200 ppm [1] | percent effect (mortality or growth inhibition) at 200 ppm [2] | percent effect (mortality or growth inhibition) at 200 ppm [5] | percent control (mortality, anti-feedant effect or growth inhibition) at 200 ppm [7]

CCS(=O)(=O)c1c(N2Cc3cc4c(cc3C2=O)OC(F)(F)O4)nc(-c2cncnc2)n1C [Compound P7, 6-(5-ethylsulfonyl-1-methyl-2-pyrimidin-5-yl-imidazol-4-yl)-2,2-difluoro-5H-[1,3]dioxolo[4,5-f]isoindol-7-one]
≥ 80%: percent effect (mortality or growth inhibition) at 200 ppm [5] | mortality at 24 ppm [6]

CCS(=O)(=O)c1cc(OCC(F)(F)F)cnc1N1Cc2cc3c(cc2C1=O)OC(F)(F)O3 [Compound P8, 6-[3-ethylsulfonyl-5-(2,2,2-trifluoroethoxy)-2-pyridyl]-2,2-difluoro-5H-[1,3]dioxolo[4,5-f]isoindol-7-one]
≥ 80%: percent control (mortality, anti-feedant effect or growth inhibition) at 200 ppm [1] | percent effect (mortality or growth inhibition) at 200 ppm [2] | percent effect (mortality or growth inhibition) at 200 ppm [5] | percent control (mortality, anti-feedant effect or growth inhibition) at 200 ppm [7]

CCS(=O)(=O)c1ccc(C2CC2)nc1N1Cc2cc3c(cc2C1=O)OC(F)(F)O3 [Compound P10, 6-(6-cyclopropyl-3-ethylsulfonyl-2-pyridyl)-2,2-difluoro-5H-[1,3]dioxolo[4,5-f]isoindol-7-one]
≥ 80%: percent control (mortality, anti-feedant effect or growth inhibition) at 200 ppm [1] | percent effect (mortality or growth inhibition) at 200 ppm [3] | percent effect (mortality or growth inhibition) at 200 ppm [5] | percent control (mortality, anti-feedant effect or growth inhibition) at 200 ppm [7]

CCS(=O)(=O)c1ccc(-n2cncn2)nc1N1Cc2cc3c(cc2C1=O)OC(F)(F)O3 [Compound P11, 6-[3-ethylsulfonyl-6-(1,2,4-triazol-1-yl)-2-pyridyl]-2,2-difluoro-5H-[1,3]dioxolo[4,5-f]isoindol-7-one]
≥ 80%: percent control (mortality, anti-feedant effect or growth inhibition) at 200 ppm [1] | percent effect (mortality or growth inhibition) at 200 ppm [2] | percent effect (mortality or growth inhibition) at 200 ppm [5] | percent control (mortality, anti-feedant effect or growth inhibition) at 200 ppm [7]

CCS(=O)(=O)c1cc(OCC(C)(F)F)cnc1N1Cc2cc3c(cc2C1=O)OC(F)(F)O3 [Compound P12, 6-[5-(2,2-difluoropropoxy)-3-ethylsulfonyl-2-pyridyl]-2,2-difluoro-5H-[1,3]dioxolo[4,5-f]isoindol-7-one]
≥ 80%: percent control (mortality, anti-feedant effect or growth inhibition) at 200 ppm [1] | percent effect (mortality or growth inhibition) at 200 ppm [2] | percent effect (mortality or growth inhibition) at 200 ppm [3] | mortality at 200 ppm [4] | percent effect (mortality or growth inhibition) at 200 ppm [5] | percent control (mortality, anti-feedant effect or growth inhibition) at 200 ppm [7]

CCS(=O)(=O)c1cc(C(F)(F)F)cnc1N1Cc2cc3c(cc2C1=O)OC(F)(F)O3 [Compound P13, 6-[3-ethylsulfonyl-5-(trifluoromethyl)-2-pyridyl]-2,2-difluoro-5H-[1,3]dioxolo[4,5-f]isoindol-7-one]
≥ 80%: percent control (mortality, anti-feedant effect or growth inhibition) at 200 ppm [1] | percent effect (mortality or growth inhibition) at 200 ppm [5] | percent control (mortality, anti-feedant effect or growth inhibition) at 200 ppm [7]

CCS(=O)(=O)c1c(N2Cc3cc4c(cc3C2=O)OC(F)(F)O4)nc(-c2cnn(C3CC3)c2)n1C [Compound P17, 6-[2-(1-cyclopropylpyrazol-4-yl)-5-ethylsulfonyl-1-methyl-imidazol-4-yl]-2,2-difluoro-5H-[1,3]dioxolo[4,5-f]isoindol-7-one]
≥ 80%: percent control (mortality, anti-feedant effect or growth inhibition) at 200 ppm [1] | percent effect (mortality or growth inhibition) at 200 ppm [2] | percent effect (mortality or growth inhibition) at 200 ppm [3] | mortality at 200 ppm [4] | percent effect (mortality or growth inhibition) at 200 ppm [5] | percent control (mortality, anti-feedant effect or growth inhibition) at 200 ppm [7]

CCS(=O)(=O)c1cc(N(C)C(C)=O)cnc1N1Cc2cc3c(cc2C1=O)OC(F)(F)O3 [Compound P18, N-[6-(2,2-difluoro-7-oxo-5H-[1,3]dioxolo[4,5-f]isoindol-6-yl)-5-ethylsulfonyl-3-pyridyl]-N-methyl-acetamide]
≥ 80%: percent effect (mortality or growth inhibition) at 200 ppm [3] | mortality at 200 ppm [4] | percent effect (mortality or growth inhibition) at 200 ppm [5]

CCS(=O)(=O)c1cc(C2CC2)cnc1N1Cc2cc3c(cc2C1=O)OC(F)(F)O3 [Compound P19, 6-(5-cyclopropyl-3-ethylsulfonyl-2-pyridyl)-2,2-difluoro-5H-[1,3]dioxolo[4,5-f]isoindol-7-one]
≥ 80%: percent control (mortality, anti-feedant effect or growth inhibition) at 200 ppm [1] | percent effect (mortality or growth inhibition) at 200 ppm [2] | mortality at 200 ppm [4] | percent effect (mortality or growth inhibition) at 200 ppm [5] | percent control (mortality, anti-feedant effect or growth inhibition) at 200 ppm [7]

CCS(=O)(=O)c1c(N2Cc3cc4c(cc3C2=O)OC(F)(F)O4)nc(-n2ccc(Cl)n2)n1C [Compound P21, 6-[2-(3-chloropyrazol-1-yl)-5-ethylsulfonyl-1-methyl-imidazol-4-yl]-2,2-difluoro-5H-[1,3]dioxolo[4,5-f]isoindol-7-one]
≥ 80%: percent effect (mortality or growth inhibition) at 200 ppm [2] | percent effect (mortality or growth inhibition) at 200 ppm [3] | mortality at 200 ppm [4] | percent effect (mortality or growth inhibition) at 200 ppm [5] | percent control (mortality, anti-feedant effect or growth inhibition) at 200 ppm [7]

CCS(=O)(=O)c1c(N2Cc3cc4c(cc3C2=O)OC(F)(F)O4)nc(-c2cc(C3CC3)no2)n1C [Compound P26, 6-[2-(3-cyclopropylisoxazol-5-yl)-5-ethylsulfonyl-1-methyl-imidazol-4-yl]-2,2-difluoro-5H-[1,3]dioxolo[4,5-f]isoindol-7-one]
≥ 80%: percent control (mortality, anti-feedant effect or growth inhibition) at 200 ppm [1] | percent effect (mortality or growth inhibition) at 200 ppm [2] | mortality at 200 ppm [4] | percent effect (mortality or growth inhibition) at 200 ppm [5] | percent control (mortality, anti-feedant effect or growth inhibition) at 200 ppm [7]
